The text below walks through data of patent publication US20210244721A1, “SMALL MOLECULE ENTEROVIRUS INHIBITORS AND USES THEREOF” (priority 2020, published 2021).

The subject of series [1] is EV-D68 US/KY/14-18953 virus. Briefly: CPE assay, EV-D68 US/KY/14-18953 in RD cells. The following applies: EV-D68 US/KY/14-18953, RD cells; for pEC50: Enterovirus D, EVD68, RD, CPE assay, read-out: EC50. The class given is cell-based, Enterovirus D68 (EV-D68).
Series [2] can be described thus: Cytotoxicity, neutral red method, RD cells. Particulars: human, RD (rhabdomyosarcoma) cells.
The test system of series [3] is RD cells. Briefly: Cytotoxicity, neutral red method, RD cells. Particulars: RD cells, neutral red method.

pEC50: −log10 of the molar value. Bounds are passed on as bounds.

Take `CN(C)CCOC(=O)c1cc(-c2ccccc2)nc2ccccc12` [Compound 6ab, 2-(dimethylamino)ethyl 2-phenylquinoline-4-carboxylate]: the pEC50 – broadly, −log10 of the EC50, conventionally taken in molar units – in series [1] was below 4.30. In addition, the midpoint of cytotoxicity in series [2], the CC50 at 3 days, lay at 78.9 µM.
As to `CNCCCNC(=O)c1cc(-c2ccccc2)nc2ccccc12` [Compound 6ac, N-[3-(methylamino)propyl]-2-phenylquinoline-4-carboxamide], in series [1], the “SI = selectivity index (CC50/EC50)” value was “SI50 = 10.5” and the pEC50 is 5.05. Also, the 50% cytotoxic concentration (CC50) (commonly the concentration that lowers cell viability or growth by half) at 3 days in series [2] turned out to be 93.6 µM.
Consider `NCCCNC(=O)c1cc(-c2ccccc2)nc2ccccc12` [Compound 6ad, N-(3-aminopropyl)-2-phenylquinoline-4-carboxamide], for which, in series [1], the “SI = selectivity index (CC50/EC50)” value is “SI50 = 23.4” and the pEC50 is 5.14. In addition, in series [2], it took 168 µM to reach half-maximal cytotoxicity (CC50 at 3 days).
With `O=C(NCC1CNC1)c1cc(-c2ccccc2)nc2ccccc12` [Compound 6ag, N-[(azetidin-3-yl)methyl]-2-phenylquinoline-4-carboxamide], the pEC50 in series [1] was 5.24. Half-maximal cytotoxicity in series [2] (CC50 at 3 days) was put at 43.2 µM.
Consider `O=C(NCC1(O)CNC1)c1cc(-c2ccccc2)nc2ccccc12` [Compound 6ah, N-[(3-hydroxyazetidin-3-yl)methyl]-2-phenylquinoline-4-carboxamide], for which, in series [1], the negative-log EC50 (pEC50) was 5.29. This compound also gave a CC50 at 3 days in series [2] of 82.2 µM.
As for `O=C(NCCC1CCCN1)c1cc(-c2ccccc2)nc2ccccc12` (stereo not drawn) [Compound 6ai, 2-phenyl-N-[2-(pyrrolidin-2-yl)ethyl]quinoline-4-carboxamide], the pEC50 in series [1] was 5.22. The compound also yielded a CC50 at 3 days in series [2] of 19.1 µM.
Consider `O=C(NC1CNC1)c1cc(-c2ccccc2)nc2ccccc12` [Compound 6aj, N-(azetidin-3-yl)-2-phenylquinoline-4-carboxamide], for which the negative-log EC50 (pEC50) in series [1] was 5.38. Further, half-maximal cytotoxicity in series [2] (CC50 at 3 days) was put at 36.6 µM.
Consider `CN1CC(NC(=O)c2cc(-c3ccccc3)nc3ccccc23)C1` [Compound 6ak, N-(1-methylazetidin-3-yl)-2-phenylquinoline-4-carboxamide], for which the negative-log EC50 (pEC50) in series [1] was 5.54. For the same compound, half-maximal cytotoxicity in series [2] (CC50 at 3 days) was put at 46.8 µM.
As to `CC1(CNC(=O)c2cc(-c3ccccc3)nc3ccccc23)CNC1` [Compound 6al, N-[(3-methylazetidin-3-yl)methyl]-2-phenylquinoline-4-carboxamide], in series [1], the pEC50 was 5.16. Besides, the CC50 at 3 days in series [2] turned out to be 49.5 µM.
For the compound `O=C(NCC1CCCNC1)c1cc(-c2ccccc2)nc2ccccc12` (stereo not drawn) [Compound 6am], in series [1], the “SI = selectivity index (CC50/EC50)” value is recorded as “SI50 = 4.2” and the pEC50 was 5.15. Besides, the CC50 at 3 days in series [2] is 30.1 µM.
For `NCCNC(=O)c1cc(-c2ccccc2)nc2ccccc12` [Compound 6an, N-(2-aminoethyl)-2-phenylquinoline-4-carboxamide], in series [1], the “SI = selectivity index (CC50/EC50)” value is on record as “SI50 = 37.4” and the pEC50 was 5.92. The CC50 at 3 days in series [2] was 44.9 µM.
In the case of `N=C(N)NCCNC(=O)c1cc(-c2ccccc2)nc2ccccc12` [Compound 6ao, N-(2-carbamimidamidoethyl)-2-phenylquinoline-4-carboxamide], in series [1], the “SI = selectivity index (CC50/EC50)” value is “SI50 >60.6” and the pEC50 was 5.48. This compound showed a half-maximal cytotoxic concentration (CC50) at 3 days in series [2] above 200 µM.
With `CC(CN)NC(=O)c1cc(-c2ccccc2)nc2ccccc12` (stereo not drawn) [Compound 6ap, N-(1-aminopropan-2-yl)-2-phenylquinoline-4-carboxamide], in series [1], the “SI = selectivity index (CC50/EC50)” value was “SI50 = 74.3” and the negative logarithm of the EC50 (pEC50) is 5.92. In series [2], half-maximal cytotoxicity (CC50 at 3 days) was put at 89.1 µM.
As to `[2H]c1c([2H])c([2H])c(-c2cc(C(=O)NCCNC)c3ccccc3n2)c([2H])c1[2H]` [Compound 6as, N-[2-(methylamino)ethyl]-2 [(2,3,4,5,6-^2H5)phenyl]quinoline-4-carboxamide], in series [1], the “SI = selectivity index (CC50/EC50)” value is “SI50 = 91.6” and the pEC50 was 5.96. In series [2], this compound gave a CC50 at 3 days of 101 µM.
Regarding `[2H]c1c([2H])c([2H])c(-c2cc(C(=O)NCCN)c3ccccc3n2)c([2H])c1[2H]` [Compound 6at, N-(2-aminoethyl)-2 [(2,3,4,5,6-^2H5)phenyl]quinoline-4-carboxamide], in series [1], the “SI = selectivity index (CC50/EC50)” value was “SI50 = 45.6” and the pEC50 was 5.66. The compound also returned a cytotoxic concentration (CC50) at 3 days in series [2] of 100 µM.
Turning to `[2H]c1c([2H])c([2H])c(-c2cc(C(=O)NCC3CNC3)c3ccccc3n2)c([2H])c1[2H]` [Compound 6au, N-[(azetidin-3-yl)methyl]-2 [(2,3,4,5,6-^2H5)phenyl]quinoline-4-carboxamide], in series [1], the “SI = selectivity index (CC50/EC50)” value was “SI50 = 29.5” and the pEC50 was 5.19. The CC50 at 3 days in series [2] was 188 µM.
As for `O=C(NC1CNC1)c1cc(-c2ccc(F)cc2)nc2ccccc12` [Compound 6ay, N-(azetidin-3-yl)-2-(4-fluorophenyl)quinoline-4-carboxamide], in series [1], the “SI = selectivity index (CC50/EC50)” value is given as “SI50 = 42.5” and the negative-log EC50 (pEC50) was 5.96. The same compound returned a cytotoxic concentration (CC50) at 3 days in series [2] of 46.7 µM.
With `O=C(NCC1CNC1)c1cc(-c2ccc(F)cc2)nc2ccccc12` [Compound 6az, N-[(azetidin-3-yl)methyl]-2-(4-fluorophenyl)quinoline-4-carboxamide], in series [1], the “SI = selectivity index (CC50/EC50)” value is given as “SI50 = 42.2” and the pEC50 is 5.92. For the same compound, it took 50.6 µM to reach half-maximal cytotoxicity in series [2] (CC50 at 3 days).
In the same order, the values of `CN(C)CCNC(=O)c1cc(-c2c(F)cccc2F)nc2ccccc12` [Compound 6bb, 2-(2,6-difluorophenyl)-N-[2-(dimethylamino)ethyl]quinoline-4-carboxamide] are “SI50 = 7.7”, 4.92 and 93 µM.
In the same order, the values of `CN(C)CCNC(=O)c1cc(-c2c(F)cc(F)cc2F)nc2ccccc12` [Compound 6bc, N-[2-(dimethylamino)ethyl]-2-(2,4,6-trifluorophenyl)quinoline-4-carboxamide] are “SI50 = 10.9”, 5.44 and 39.2 µM.
For the compound `CN(C)CCNC(=O)c1cc(-c2cc(F)c(F)c(F)c2)nc2ccccc12` [Compound 6bd, N-[2-(dimethylamino)ethyl]-2-(3,4,5-trifluorophenyl)quinoline-4-carboxamide], in series [1], the pEC50 is below 3.52. In series [2], this compound showed a CC50 at 3 days of 38 µM.
With `CN(C)CCNC(=O)c1cc(-c2c(F)c(F)c(F)c(F)c2F)nc2ccccc12` [Compound 6be, N-[2-(dimethylamino)ethyl]-2-(2,3,4,5,6-pentafluorophenyl)quinoline-4-carboxamide], in series [1], the “SI = selectivity index (CC50/EC50)” value was “SI50 = 13.7” and the pEC50 is 4.97. This compound came in with a 50% cytotoxic concentration (CC50) at 3 days in series [2] of 148 µM.
Take `CN1CC(NC(=O)c2cc(-c3cccs3)nc3ccccc23)C1` [Compound 6bh, N-(1-methylazetidin-3-yl)-2-(thiophen-2-yl)quinoline-4-carboxamide]: in series [1], the “SI = selectivity index (CC50/EC50)” value was “SI50 = 42.6” and the negative logarithm of the EC50 (pEC50) was 6.00. Further, the half-maximal cytotoxic concentration (CC50) at 3 days in series [2] was 42.6 µM.
As to `CC(CN)NC(=O)c1cc(-c2cccs2)nc2ccccc12` (stereo not drawn) [Compound 6bm, N-(1-aminopropan-2-yl)-2-(thiophen-2-yl)quinoline-4-carboxamide], in series [1], the “SI = selectivity index (CC50/EC50)” value is on record as “SI50 = 47.6” and the pEC50 is 6.30. Also, the midpoint of cytotoxicity in series [2], the CC50 at 3 days, lay at 23.8 µM.
As for `O=C(NCC1CNC1)c1cc(-c2cccs2)nc2ccccc12` [Compound 6bn, N-[(azetidin-3-yl)methyl]-2-(thiophen-2-yl)quinoline-4-carboxamide], in series [1], the “SI = selectivity index (CC50/EC50)” value is reported as “SI50 = 23.6” and the pEC50 was 5.92. The same compound came in with a CC50 at 3 days in series [2] of 28.3 µM.
For `NCCNC(=O)c1cc(-c2ccco2)nc2ccccc12` [Compound 6bp, N-(2-aminoethyl)-2-(furan-2-yl)quinoline-4-carboxamide], in series [1], the “SI = selectivity index (CC50/EC50)” value is “SI50 = 33.4” and the pEC50 is 5.36. In addition, the midpoint of cytotoxicity in series [2], the CC50 at 3 days, lay at 147 µM.
Regarding `O=C(NC1CNC1)c1cc(-c2ccco2)nc2ccccc12` [Compound 6bq, N-(azetidin-3-yl) 2-(furan-2-yl)quinoline-4-carboxamide], in series [1], the “SI = selectivity index (CC50/EC50)” value is “SI50 = 14.5” and the pEC50 was 4.95. The CC50 at 3 days in series [2] was 161 µM.
For `O=C(NCC1CNC1)c1cc(-c2ccco2)nc2ccccc12` [Compound 6br, N-[(azetidin-3-yl)methyl]-2-(furan-2-yl)quinoline-4-carboxamide], in series [1], the “SI = selectivity index (CC50/EC50)” value was “SI50 = 14.8” and the pEC50 is 4.94. Moreover, the CC50 at 3 days in series [2] turned out to be 170 µM.
For the compound `NCCNC(=O)c1cc(-c2ccco2)nc2c(Cl)cccc12` [Compound 6bs, N-(2-aminoethyl)-8-chloro-2-(furan-2-yl)quinoline-4-carboxamide], in series [1], the “SI = selectivity index (CC50/EC50)” value is reported as “SI50 = 50.5” and the pEC50 is 6.00. The same compound showed a CC50 at 3 days in series [2] of 50.5 µM.
`NNC(=O)c1cc(-c2ccccc2)nc2ccccc12` [Compound 10d, 2-phenylquinoline-4-carbohydrazide]: in series [1], the “SI = selectivity index (CC50/EC50)” value is given as above 3. This compound displayed a CC50 in series [3] above 300 µM.
In the case of `N=C(N)NC(=O)c1cc(-c2ccccc2)nc2ccccc12` [Compound 10e, N-carbamimidoyl-2-phenylquinoline-4-carboxamide], the “SI = selectivity index (CC50/EC50)” value in series [1] is listed as above 7.2. The compound further returned a CC50 in series [3] above 250 µM.
As to `CN(C)c1ccc(NC(=O)c2cc(-c3ccccc3)nc3ccccc23)cc1` [Compound 10f, N-[4-(dimethylamino)phenyl]-2-phenylquinoline-4-carboxamide], the “SI = selectivity index (CC50/EC50)” value in series [1] is reported as above 3.5. In series [3], this compound returned a CC50 above 350 µM.
For `NNC(=O)c1cc(-c2cccs2)nc2ccccc12` [Compound 12e, 2-(thiophen-2-yl)quinoline-4-carbohydrazide], the “SI = selectivity index (CC50/EC50)” value in series [1] is above 8.4. This compound came in with a cytotoxic concentration (CC50) in series [3] above 100 µM.
